Measurements reported in patent publication US5407918A, “16-membered macrolide derivatives and process for producing the same” (Meiji Seika Kaisha, Ltd., priority 1992, dated 1995).
Values after ≈ are worked out from the molar mass of the structure shown. Like-named read-outs stand apart in the source and are kept apart here.

Assays:
metabolism in plasma = format: in vitro ADME, rat; conditions: no free hydroxyl group in the neutral sugar moiety formed
Description: Each test compound and 50 μl of a methanol solution (10,000 γ) were added to 950 μl of thawed rat plasma and the resulting mixture was incubated at 37° C. for 24 hours. After completion of the incubation, a 20 μl portion of the mixture was added to 980 μl of 0.05M phosphate buffer (pH 7.6). A 20 μl portion of the sample solution was used to measure antimicrobial activity against M. luteus. Separately, the calibration curve was prepared by using a methanol solution containing each test compound. The starting activity of each compound in the plasma was referred to as 100%.

[1] = test system: Gram-positive bacteria and Mycoplasma; test: antimicrobial activity in vitro (summary in words); format: cell-based; conditions: from Table 1
Description: (§1) Antimicrobial activities of the compounds of the present invention were determined by measuring minimum inhibitory concentration (MIC). Minimum inhibitory concentration was determined by the agar plate dilution method in the following manner.
(§2) Test strains were subjected to seed culture using Sensitivity test broth (STB, Nissui Pharmaceutical) except that the strains belonging to the genus Streptococcus, Branhamella and Haemophilus were cultured on blood agar plate. A 5 μl portion of cell suspension of the test strains having about 10^6 CFU/ml was inoculated into Sensitivity disk agar (SDA, Nissui Pharmaceutical) supplemented with 5% horse blood and incubated at 37° C. for 20 hours. Then, MIC was measured. For comparison, MDM and leucomycin A7 (LM-A7) was also tested.

S. Pneumoniae Type 1 = test: MIC, agar plate dilution method; format: cell-based; conditions: Streptococcus pneumoniae; S. Pneumoniae Type 1; 37° C., 20 hours; read-out: Antimicrobial activity (MIC)
Description: as §1, §2

M. luteus ATCC9341 = test: MIC, agar plate dilution method; format: cell-based; conditions: Micrococcus luteus, read-out: Antimicrobial activity (MIC)
Description: as §1, §2

S. pneumoniae IP692 = test: MIC, agar plate dilution method; format: cell-based; conditions: Streptococcus pneumoniae, read-out: Antimicrobial activity (MIC)
Description: as §1, §2

S. epidermidis ATCC14990 = test: MIC, agar plate dilution method; format: cell-based; conditions: Staphylococcus epidermidis, 37° C., 20 hours, read-out: Antimicrobial activity (MIC)
Description: as §1, §2

S. aureus MS15026 = test: MIC, agar plate dilution method; format: cell-based; conditions: Staphylococcus aureus, 37° C., 20 hours, read-out: Antimicrobial activity (MIC)
Description: as §1, §2

S. Pyogenes Cook = test: MIC, agar plate dilution method; format: cell-based; conditions: Streptococcus pyogenes, 37° C., 20 hours, read-out: Antimicrobial activity (MIC)
Description: as §1, §2

M. pneumoniae Numata = test: MIC, agar plate dilution method; format: cell-based; conditions: Mycoplasmoides pneumoniae, 20 h, read-out: Antimicrobial activity (MIC)
Description: as §1, §2

H. influenzae 9334 = test: MIC, agar plate dilution method; format: cell-based; conditions: Haemophilus influenzae; H. influenzae 9334; 37° C., 20 hours; read-out: Antimicrobial activity (MIC)
Description: as §1, §2

S. aureus MS15009/pMS99 = test: MIC, agar plate dilution method; format: cell-based; conditions: Staphylococcus aureus, MS15009/PMS99, 20 h, read-out: Antimicrobial activity (MIC)
Description: as §1, §2

S. aureus M133 = test: MIC, agar plate dilution method; format: cell-based; conditions: Staphylococcus aureus, 37° C., 20 hours, read-out: Antimicrobial activity (MIC)
Description: as §1, §2

S. aureus 209P JC-1 = test: MIC, agar plate dilution method; format: cell-based; conditions: Staphylococcus aureus; S. aureus 209P JC-1; 37° C., 20 hours; read-out: Antimicrobial activity (MIC)
Description: as §1, §2

K. pneumoniae PC1602 = test: MIC, agar plate dilution method; format: cell-based; conditions: Klebsiella pneumoniae, 37° C., 20 hours, read-out: Antimicrobial activity (MIC)
Description: as §1, §2

S. aureus M126 = test: MIC, agar plate dilution method; format: cell-based; conditions: Staphylococcus aureus; S. aureus M126; 37° C., 20 hours; read-out: Antimicrobial activity (MIC)
Description: as §1, §2

E. coli NIHJ JC-2 = test: MIC, agar plate dilution method; format: cell-based; conditions: Escherichia coli, NIHJJC2; E. coli NIHJ JC-2; 37° C., 20 hours; read-out: Antimicrobial activity (MIC)
Description: as §1, §2

E. faecalis W-73 = test: MIC, agar plate dilution method; format: cell-based; conditions: Enterococcus faecalis, W73; E. faecalis W-73; 37° C., 20 hours; read-out: Antimicrobial activity (MIC)
Description: as §1, §2

M. pneumoniae FH-P24 = test: MIC, agar plate dilution method; format: cell-based; conditions: Mycoplasmoides pneumoniae, FHP24, 20 h, read-out: Antimicrobial activity (MIC)
Description: as §1, §2

M. pneumoniae Mac = test: MIC, agar plate dilution method; format: cell-based; conditions: Mycoplasmoides pneumoniae, 20 h, read-out: Antimicrobial activity (MIC)
Description: as §1, §2

S. aureus MS15009/pMS98 = test: MIC, agar plate dilution method; format: cell-based; conditions: Staphylococcus aureus, MS15009/PMS98, 20 h, read-out: Antimicrobial activity (MIC)
Description: as §1, §2

M. pneumoniae FH = test: MIC, agar plate dilution method; format: cell-based; conditions: Mycoplasmoides pneumoniae, 20 h, read-out: Antimicrobial activity (MIC)
Description: as §1, §2

B. catarrhalis W-0500 = test: MIC, agar plate dilution method; format: cell-based; conditions: Moraxella catarrhalis, W0500, 37° C., 20 hours, read-out: Antimicrobial activity (MIC)
Description: as §1, §2

B. catarrhalis W-0506 = test: MIC, agar plate dilution method; format: cell-based; conditions: Moraxella catarrhalis, W0506, 37° C., 20 hours, read-out: Antimicrobial activity (MIC)
Description: as §1, §2

S. aureus MS15027 = test: MIC, agar plate dilution method; format: cell-based; conditions: Staphylococcus aureus, 37° C., 20 hours, read-out: Antimicrobial activity (MIC)
Description: as §1, §2

[2] = pharmacokinetics of midecamycins after oral administration to mice; format: in vivo
From the text: First, the present inventors discussed effects of a difference in the structure at the 9-position among midecamycin analogues, from among 16-membered macrolide compounds, on pharmacokinetics. That is to say, midecamycin A1 having a hydroxyl group at the 9-position (Medemycin; MDM) [Journal of Antibiotics, 24 (7), 452 (1971)] and midecamycin A3 having a carbonyl group at the 9-position [ibid., 24 (7), 476 (1971)] were orally administered to animals (mice), followed by observing the pharmacokinetics.

[3] = recovery in urine after oral administration to mice, bioassay; format: in vivo; conditions: mouse, 200 mg/kg oral (compound (3)), urine 4 and 24 hours
Description: Subsequently, 200 mg/kg of the compound (3) was orally administered to three mice in the same manner as described above.
The three mice were put in a metabolic cage MM type (Sugiyamagen Company, Tokyo, Japan) and urine was collected 4 and 24 hours after the administration of the test compound. The collected urine was filtered through a filter having a pore size of 0.45 μm (Millipore) and was mixed with an equivalent volume of 50% CH3CN-50 mM phosphate (1:1 by volume) buffer (pH 6.5) to serve as a urine sample. The bioassay was carried out in the same manner as described above to determine the concentration of the test compound in the urine sample. The recovering in the urine was calculated according to the following equation. [formula]

[4] = concentration in serum after oral administration to mice, bioassay; format: in vivo, mice (Jcl:ICR); conditions: mouse, serum, 200 mg/kg, M. luteus bioassay, read-out: maximum concentration in the serum
Description: The compound (3) was mixed with a 0.2% solution of carboxymethylcellulose to give a concentration of 4 mg/ml and a 1 ml portion of the resulting emulsion was orally administered to 4-week-old male Jcl:ICR mice. Blood was collected from armpit of the mice 30, 60, 120, 240 and 360 minutes after the administration of the test compound (n=2). The collected blood was allowed to stand at room temperature for about 2 hours and centrifuged for 20 minutes with a centrifuge (KUBOTA KS-5000P) to obtain serum. To the serum was added an equivalent volume of 50% CH3 CN-50 mM phosphate (1:1 by volume) buffer (pH 7.0). The resulting mixture served as a serum sample. The concentration of the test compound in the serum sample was measured by the following bioassay method.
One hundred […] of the serum sample was poured into a hole made on a test plate containing 40 ml of MRAPJ medium (6 g/l peptone, 3 g/l yeast extract, 1.5 g/l meat extract, 1 g/l glucose and 15 g/l agar, pH 6.5) supplemented with a solution of M. Iuteus ATCC9341 (1%) and incubated at 32° C. for 18 hours and MIC was measured based on the calibration curve. MOM, MDM and RKM were also tested for comparison. […] Thus a long-pending problem of "low concentration in serum" of 16-membered macrolide antibiotics has been solved. […] Thus this compound is considered as a macrolide derivative showing new pharmacokinetics.
Further, a pharmacokinetics test on the compound (12) of the present invention is carried out in the same manner as described above. Namely, 200 mg/kg of the compound (12) is orally administered to mice and the concentration of this compound in the serum is determined by a bioassay method with the use of M. luteus as a test strain. […] The disadvantage of 16-membered ring macrolide antibiotics, which has been pointed out for a long time, has been thus overcome.

| Structure (SMILES) | MIC (S. Pneumoniae Type 1) [µg/mL] | MIC (S. epidermidis ATCC14990) [µg/mL] | MIC (S. aureus MS15026) [µg/mL] | MIC (S. Pyogenes Cook) [µg/mL] | MIC (M. pneumoniae Numata) [µg/mL] | MIC (H. influenzae 9334) [µg/mL] | MIC (S. aureus MS15009/pMS99) [µg/mL] | MIC (S. aureus M133) [µg/mL] | MIC (S. aureus 209P JC-1) [µg/mL] | MIC (K. pneumoniae PC1602) [µg/mL] | MIC (S. aureus M126) [µg/mL] | MIC (E. coli NIHJ JC-2) [µg/mL] | MIC (E. faecalis W-73) [µg/mL] | MIC (M. pneumoniae Mac) [µg/mL] | MIC (S. aureus MS15009/pMS98) [µg/mL] | MIC (M. pneumoniae FH) [µg/mL] | MIC (B. catarrhalis W-0500) [µg/mL] | MIC (B. catarrhalis W-0506) [µg/mL] | MIC (S. aureus MS15027) [µg/mL] | also measured |
| --- | --- | --- | --- | --- | --- | --- | --- | --- | --- | --- | --- | --- | --- | --- | --- | --- | --- | --- | --- | --- |
| CCCCCCO[C@H]1[C@H](C)O[C@@H](O[C@H]2[C@H](N(C)C)[C@@H](O)[C@H](O[C@H]3[C@@H](CC=O)C[C@@H](C)[C@@H](O)/C=C/C=C/C[C@@H](C)OC(=O)C[C@@H](OC(=O)CC)[C@@H]3OC)O[C@@H]2C)C[C@@]1(C)OC [(5)] | 0.2 (≈ 0.234 µM) | 1.56 (≈ 1.82 µM) | > 100 | 0.2 (≈ 0.234 µM) | 0.05 (≈ 0.0584 µM) | 6.25 (≈ 7.3 µM) | > 100 | 1.56 (≈ 1.82 µM) | 0.39 (≈ 0.456 µM) | > 100 | > 100 | > 100 | 3.13 (≈ 3.66 µM) | 0.2 (≈ 0.234 µM) | 0.78 (≈ 0.911 µM) | 1.56 (≈ 1.82 µM) | 1.56 (≈ 1.82 µM) | 1.56 (≈ 1.82 µM) | 1.56 (≈ 1.82 µM) | degree of loss of the antimicrobial activity in the plasma compared with MOM (M. luteus): lower than that of MOM; duration of antimicrobial activity in rat plasma (M. luteus): extremely long-acting in rat plasma; extent of metabolism (metabolism in plasma): hardly metabolized; antimicrobial activities on Gram-positive bacteria and Mycoplasma [1]: strong antimicrobial activities; MIC (M. luteus ATCC9341; ATCC9341, 20 h): 0.1 µg/mL (≈ 0.117 µM); MIC (S. pneumoniae IP692; IP692, 20 h): 0.2 µg/mL (≈ 0.234 µM); MIC (M. pneumoniae FH-P24): 0.2 µg/mL (≈ 0.234 µM) |
| CCC(=O)O[C@@H]1CC(=O)O[C@H](C)C/C=C/C=C/[C@H](O)[C@H](C)C[C@H](CC=O)[C@H](O[C@@H]2O[C@H](C)[C@@H](O[C@H]3C[C@@](C)(O)[C@@H](OC(=O)CC)[C@H](C)O3)[C@H](N(C)C)[C@H]2O)[C@H]1OC [MDM, midecamycin A1, reference compound] | 0.39 (≈ 0.479 µM) | 1.56 (≈ 1.92 µM) | > 100 | 0.2 (≈ 0.246 µM) | 0.05 (≈ 0.0614 µM) | 3.13 (≈ 3.85 µM) | > 100 | 0.78 (≈ 0.958 µM) | 0.39 (≈ 0.479 µM) | > 100 | > 100 | > 100 | 3.13 (≈ 3.85 µM) | 0.1 (≈ 0.123 µM) | 0.39 (≈ 0.479 µM) | 1.56 (≈ 1.92 µM) | 3.13 (≈ 3.85 µM) | 1.56 (≈ 1.92 µM) | 0.78 (≈ 0.958 µM) | recovery in urine compared with midecamycin A3 [2]: superior to midecamycin A3; sustained concentration in serum compared with midecamycin A3 [2]: superior to midecamycin A3; dose excreted at 24 h [3]: < 2%; MIC (M. luteus ATCC9341; M. luteus ATCC9341, 37° C., 20 hours): 0.05 µg/mL (≈ 0.0614 µM); MIC (S. pneumoniae IP692; S. pneumoniae IP692, 37° C., 20 hours): 0.39 µg/mL (≈ 0.479 µM); MIC (M. pneumoniae FH-P24; M. pneumoniae FH-P24): 0.1 µg/mL (≈ 0.123 µM); Cmax [4]: 5200 ng/mL |
